Results published in patent EP0545911B1, “Lanthionine-containing bacteriocin compositions for use as bactericides” (APPLIED MICROBIOLOGY, INC., priority 1988, dated 1996).

What was measured:
Type in all cases: cell-based
Streptococcus agalactiae = assay: Bactericidal activity (percent bacterial survival, CFU count) in milk at 37°C; details: for % survival at 2hr: Monolaurin 0 %
Method: (§1) All tests in the following examples were performed at 37°C. The efficacy of the enhanced broad range bactericides was determined by assaying bactericidal activity as measured by the percent bacterial survival after treatment with the bactericide. Generally, after incubation of a 10^7 cell per ml suspension of target species with the novel bactericide for specified lengths of time, bacteria were collected by centrifugation for 2 minutes. The bacterial pellet was washed free of the bactericide with a rescue buffer, termed herein Phage buffer (50mM Tris-HCl buffer pH 7.8, 1mM MgSO4, 4mM CaCl2, 0.1 M NaCl, and 0.1% gelatin), resuspended and serially diluted into Phage buffer, and […] of the suspended bacteria were spread on nutrient agar plates. Surviving bacteria were determined by scoring colony forming units (CFU) after incubation for 24-48 hours at 37°C. An effective bactericide according to this invention is one which allows less than 0.1% of the initial viable count of the bacteria to survive.
Thus, when the application of nisin is limited by its available activity, a bactericide comprising nisin with a surfactant can be expected to be more useful.

Listeria monocytogenes [1] = details: monooleate by itself; milk
Method: as §1

Listeria monocytogenes [2] = assay: Bactericidal activity (percent bacterial survival, CFU count) in milk at 37°C
Method: as §1

## CCCCCCCCCCCC(=O)OCC(O)CO (stereo not drawn) [Monolaurin, monolaurin]
Streptococcus agalactiae; Streptococcus agalactiae, 2 h, Nisin 0 µg/ml, Monolaurin 0.01 %, 37°C, initial viable counts 6.0 x 10^7 cfu/ml
  viability at 0.01 %: 100%
Streptococcus agalactiae; Streptococcus agalactiae, 2 h, Nisin 0 µg/ml, Monolaurin 0.1 %, 37°C, initial viable counts 6.0 x 10^7 cfu/ml
  viability at 0.1 %: 4.5%
Streptococcus agalactiae; monolaurin alone at concentrations up to 0.1%
  bactericidal activity towards Streptococcus agalactiae (in words): little significant bactericidal activity

## glyceride monooleate
Listeria monocytogenes [1]
  bactericidal activity towards L. monocytogenes (in words): no bactericidal activity

## Nisin (ITSISLCTPGCKTGALMGCNMKTATCHCSIHVSK; not fully specified; Lantibiotic nisin-A; UniProt P13068 24-57, looked up) [polypeptide with antimicrobial properties produced by strains of Streptococcus lactis; lanthionine-containing peptide bacteriocin, known food preservative]
Streptococcus agalactiae; Nisin 0.02 µg/ml, 37°C, initial viable counts 6.0 x 10^7 cfu/ml
  % survival at 2hr: 100%
Streptococcus agalactiae; Nisin 0.2 µg/ml, 37°C, initial viable counts 6.0 x 10^7 cfu/ml
  % survival at 2hr: 2.2%
Streptococcus agalactiae; nisin alone at concentrations up to 0.2 µg.ml
  bactericidal activity in milk (in words): does not exhibit significant bactericidal activity
Listeria monocytogenes [2]; Nisin 100 µg/ml, Monooleate 0 %, milk, 37°C, initial viable count 5.0 x 10^7 cfu/ml
  % survival at 2hr: 0.56%
Listeria monocytogenes [2]; nisin alone, complex medium like milk
  available nisin activity towards L. monocytogenes (in words): restricted
